# System: otherwise abstinent person
# Experiment: Human use of Flumazenil during a period of urges for a substance of abuse
# Format: in vivo
# Conditions: placed into the blood stream as quickly as possible during a period of urges
# Source text: While an IV might accomplish the above noted task, it is not realistic for a person, after having undergone detoxification, to have repeated IV therapies daily, to prevent a relapse so as not become substance abuse dependent again. Such a person would have to go to a treatment location where an IV can be administered.
structure (smiles),measurement,value
CCOC(=O)c1ncn2c1CN(C)C(=O)c1cc(F)ccc1-2 [Flumazenil],Urge for a substance of abuse such as alcohol,the urge will disappear
